Laboratory results from PMC10337138 (Acta Neuropathologica Communications, 2023).

Tests used:
Settings in all cases: 1 mM ATP; inhibitor
AAK1 = AAK1 (Homo sapiens, UniProt Q2M2I8)
Procedure: (§1) Kinase selectivity panel Kinome profiling was conducted by AssayQuant Technologies (Marlboro, MA) using Sox chromophore technology and Sox-based peptide substrates developed for human kinases in a 384-well format. Compounds were tested at 1 µM in the presence of 1 mM ATP.

FGR = FGR (Homo sapiens, UniProt P09769)
Procedure: as §1

LIMK1 = LIMK1 (Homo sapiens, UniProt P53667)
Procedure: as §1

PRKACB = PRKACB (Homo sapiens, UniProt P22694)
Procedure: as §1

CAMKK1 = CAMKK1 (Homo sapiens, UniProt Q8N5S9)
Procedure: as §1

FLT4 = FLT4 (Homo sapiens, UniProt P35916)
Procedure: as §1

CDK4/D3 = CDK4/D3 (Homo sapiens, UniProt P11802)
Procedure: as §1

SGK3 = SGK3 (Homo sapiens, UniProt Q96BR1)
Procedure: as §1

MAP4K3/GLK = MAP4K3/GLK (Homo sapiens, UniProt Q8IVH8)
Procedure: as §1

GRK6 = GRK6 (Homo sapiens, UniProt P43250)
Procedure: as §1

MYLK3 = MYLK3 (Homo sapiens, UniProt Q32MK0)
Procedure: as §1

PRKCI/PKCI = PRKCI/PKCI (Homo sapiens, UniProt P41743)
Procedure: as §1

TSSK2 = TSSK2 (Homo sapiens, UniProt Q96PF2)
Procedure: as §1

BMP2K/BIKE = BMP2K/BIKE (Homo sapiens, UniProt Q9NSY1)
Procedure: as §1

CAMK2G = CAMK2G (Homo sapiens, UniProt Q13555)
Procedure: as §1

NEK5 = NEK5 (Homo sapiens, UniProt Q6P3R8)
Procedure: as §1

MAPK12/P38G = MAPK12/P38G (Homo sapiens, UniProt P53778)
Procedure: as §1

CTK = target: T1, CTK (Homo sapiens, UniProt P42679)
T1 construct: gene MATK
Procedure: as §1

EPHA1 = EPHA1 (Homo sapiens, UniProt P21709)
Procedure: as §1

DDR2 = DDR2 (Homo sapiens, UniProt Q16832)
Procedure: as §1

EPHA4 = EPHA4 (Homo sapiens, UniProt P54764)
Procedure: as §1

ALK = ALK (Homo sapiens, UniProt Q9UM73)
Procedure: as §1

CDK6/D3 = CDK6/D3 (Homo sapiens, UniProt Q00534)
Procedure: as §1

STK11/LKB1 = STK11/LKB1 (Homo sapiens, UniProt Q15831)
Procedure: as §1

JAK3(JH1) = JAK3(JH1) (Homo sapiens, UniProt P52333)
Procedure: as §1

CHEK1/CHK1 = CHEK1/CHK1 (Homo sapiens, UniProt O14757)
Procedure: as §1

CDK18 = CDK18 (Homo sapiens, UniProt Q07002)
Procedure: as §1

PTK2 = PTK2 (Homo sapiens, UniProt Q05397)
Procedure: as §1

SRPK2 = SRPK2 (Homo sapiens, UniProt P78362)
Procedure: as §1

SGK2 = SGK2 (Homo sapiens, UniProt Q9HBY8)
Procedure: as §1

PLK2 = PLK2 (Homo sapiens, UniProt Q9NYY3)
Procedure: as §1

TESK2 = TESK2 (Homo sapiens, UniProt Q96S53)
Procedure: as §1

DYRK3 = DYRK3 (Homo sapiens, UniProt O43781)
Procedure: as §1

TEK/TIE2 = TEK/TIE2 (Homo sapiens, UniProt Q02763)
Procedure: as §1

MAP3K13 = MAP3K13 (Homo sapiens, UniProt O43283)
Procedure: as §1

AKT2 = AKT2 (Homo sapiens, UniProt P31751)
Procedure: as §1

MAPK8/JNK1 = MAPK8/JNK1 (Homo sapiens, UniProt P45983)
Procedure: as §1

PRKG2 = PRKG2 (Homo sapiens, UniProt Q13237)
Procedure: as §1

PDGFRA = PDGFRA (Homo sapiens, UniProt P16234)
Procedure: as §1

Chain of ALK (Q9UM73 whole entry): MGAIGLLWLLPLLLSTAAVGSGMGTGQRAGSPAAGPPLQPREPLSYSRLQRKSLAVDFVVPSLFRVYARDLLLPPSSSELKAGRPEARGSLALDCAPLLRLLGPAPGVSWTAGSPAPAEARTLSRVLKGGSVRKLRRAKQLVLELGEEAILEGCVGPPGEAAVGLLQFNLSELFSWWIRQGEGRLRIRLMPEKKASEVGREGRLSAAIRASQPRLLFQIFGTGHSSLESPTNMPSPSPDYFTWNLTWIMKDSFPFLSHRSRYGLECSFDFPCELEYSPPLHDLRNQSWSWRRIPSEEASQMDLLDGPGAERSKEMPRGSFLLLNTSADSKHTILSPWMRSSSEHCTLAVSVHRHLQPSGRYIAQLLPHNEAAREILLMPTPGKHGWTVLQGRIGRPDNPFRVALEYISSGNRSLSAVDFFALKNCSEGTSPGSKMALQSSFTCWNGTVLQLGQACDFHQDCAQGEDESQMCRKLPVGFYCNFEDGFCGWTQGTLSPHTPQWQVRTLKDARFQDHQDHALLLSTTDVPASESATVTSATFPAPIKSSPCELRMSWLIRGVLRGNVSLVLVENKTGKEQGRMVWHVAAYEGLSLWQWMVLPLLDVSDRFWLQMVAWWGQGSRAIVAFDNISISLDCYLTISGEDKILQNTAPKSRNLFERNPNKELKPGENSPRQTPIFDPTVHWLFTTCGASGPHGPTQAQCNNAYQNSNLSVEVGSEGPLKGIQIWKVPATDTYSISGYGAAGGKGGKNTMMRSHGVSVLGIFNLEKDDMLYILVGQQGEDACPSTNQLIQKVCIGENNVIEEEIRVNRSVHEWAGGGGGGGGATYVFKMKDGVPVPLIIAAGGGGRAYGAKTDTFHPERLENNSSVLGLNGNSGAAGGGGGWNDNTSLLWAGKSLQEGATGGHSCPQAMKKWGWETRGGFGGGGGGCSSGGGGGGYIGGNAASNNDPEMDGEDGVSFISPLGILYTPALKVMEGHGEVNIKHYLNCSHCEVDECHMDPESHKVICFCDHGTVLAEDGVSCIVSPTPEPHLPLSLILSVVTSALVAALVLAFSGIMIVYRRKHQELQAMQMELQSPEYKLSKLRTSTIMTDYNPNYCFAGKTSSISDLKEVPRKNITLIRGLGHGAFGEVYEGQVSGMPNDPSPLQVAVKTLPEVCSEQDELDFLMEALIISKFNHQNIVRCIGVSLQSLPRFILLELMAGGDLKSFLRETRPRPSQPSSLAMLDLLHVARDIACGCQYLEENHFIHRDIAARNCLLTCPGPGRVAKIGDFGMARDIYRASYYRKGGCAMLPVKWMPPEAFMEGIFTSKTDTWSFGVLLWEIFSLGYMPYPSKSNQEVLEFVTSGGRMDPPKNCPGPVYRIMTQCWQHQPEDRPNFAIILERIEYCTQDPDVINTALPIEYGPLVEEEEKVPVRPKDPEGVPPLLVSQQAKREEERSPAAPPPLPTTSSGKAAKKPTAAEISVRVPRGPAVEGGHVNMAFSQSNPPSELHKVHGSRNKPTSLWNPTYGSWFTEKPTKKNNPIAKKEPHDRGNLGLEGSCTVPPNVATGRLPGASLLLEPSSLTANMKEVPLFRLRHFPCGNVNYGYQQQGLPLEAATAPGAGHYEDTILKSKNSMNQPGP
Chain of FLT4 (P35916 whole entry): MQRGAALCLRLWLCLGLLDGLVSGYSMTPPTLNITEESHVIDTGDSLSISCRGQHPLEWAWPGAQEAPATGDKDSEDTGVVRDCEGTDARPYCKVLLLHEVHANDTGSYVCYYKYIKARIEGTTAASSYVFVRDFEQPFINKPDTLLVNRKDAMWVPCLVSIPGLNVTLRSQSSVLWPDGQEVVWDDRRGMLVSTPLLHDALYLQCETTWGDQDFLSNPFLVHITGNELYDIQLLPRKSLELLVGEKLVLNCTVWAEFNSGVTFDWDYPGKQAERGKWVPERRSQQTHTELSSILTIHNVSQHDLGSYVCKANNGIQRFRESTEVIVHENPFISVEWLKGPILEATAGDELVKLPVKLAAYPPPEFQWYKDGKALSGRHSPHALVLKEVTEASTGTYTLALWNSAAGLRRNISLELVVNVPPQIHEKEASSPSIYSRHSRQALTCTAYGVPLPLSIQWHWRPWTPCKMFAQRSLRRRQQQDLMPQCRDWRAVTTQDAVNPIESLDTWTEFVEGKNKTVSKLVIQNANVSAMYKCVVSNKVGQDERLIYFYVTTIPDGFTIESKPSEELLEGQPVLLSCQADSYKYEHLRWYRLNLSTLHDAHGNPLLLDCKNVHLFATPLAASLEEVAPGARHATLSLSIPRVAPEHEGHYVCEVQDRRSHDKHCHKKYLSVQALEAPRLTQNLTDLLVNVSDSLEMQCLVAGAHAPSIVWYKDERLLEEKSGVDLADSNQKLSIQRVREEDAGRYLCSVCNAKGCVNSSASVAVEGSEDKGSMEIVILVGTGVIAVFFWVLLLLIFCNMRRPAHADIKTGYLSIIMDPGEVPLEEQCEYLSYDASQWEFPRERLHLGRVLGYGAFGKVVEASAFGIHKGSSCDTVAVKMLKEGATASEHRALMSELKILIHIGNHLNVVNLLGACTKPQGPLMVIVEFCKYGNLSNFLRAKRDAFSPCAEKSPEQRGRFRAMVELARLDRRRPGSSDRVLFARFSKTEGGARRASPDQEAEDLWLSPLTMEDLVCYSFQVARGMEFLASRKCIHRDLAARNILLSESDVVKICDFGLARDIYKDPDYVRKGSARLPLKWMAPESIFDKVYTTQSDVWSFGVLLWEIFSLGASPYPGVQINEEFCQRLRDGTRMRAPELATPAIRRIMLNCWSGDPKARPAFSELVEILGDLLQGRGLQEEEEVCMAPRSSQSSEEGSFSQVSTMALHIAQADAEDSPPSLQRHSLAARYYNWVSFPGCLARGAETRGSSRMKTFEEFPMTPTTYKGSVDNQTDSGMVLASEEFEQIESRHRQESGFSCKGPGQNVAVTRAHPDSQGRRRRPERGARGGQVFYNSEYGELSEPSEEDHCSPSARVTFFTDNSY
Chain of BMP2K/BIKE (Q9NSY1 whole entry): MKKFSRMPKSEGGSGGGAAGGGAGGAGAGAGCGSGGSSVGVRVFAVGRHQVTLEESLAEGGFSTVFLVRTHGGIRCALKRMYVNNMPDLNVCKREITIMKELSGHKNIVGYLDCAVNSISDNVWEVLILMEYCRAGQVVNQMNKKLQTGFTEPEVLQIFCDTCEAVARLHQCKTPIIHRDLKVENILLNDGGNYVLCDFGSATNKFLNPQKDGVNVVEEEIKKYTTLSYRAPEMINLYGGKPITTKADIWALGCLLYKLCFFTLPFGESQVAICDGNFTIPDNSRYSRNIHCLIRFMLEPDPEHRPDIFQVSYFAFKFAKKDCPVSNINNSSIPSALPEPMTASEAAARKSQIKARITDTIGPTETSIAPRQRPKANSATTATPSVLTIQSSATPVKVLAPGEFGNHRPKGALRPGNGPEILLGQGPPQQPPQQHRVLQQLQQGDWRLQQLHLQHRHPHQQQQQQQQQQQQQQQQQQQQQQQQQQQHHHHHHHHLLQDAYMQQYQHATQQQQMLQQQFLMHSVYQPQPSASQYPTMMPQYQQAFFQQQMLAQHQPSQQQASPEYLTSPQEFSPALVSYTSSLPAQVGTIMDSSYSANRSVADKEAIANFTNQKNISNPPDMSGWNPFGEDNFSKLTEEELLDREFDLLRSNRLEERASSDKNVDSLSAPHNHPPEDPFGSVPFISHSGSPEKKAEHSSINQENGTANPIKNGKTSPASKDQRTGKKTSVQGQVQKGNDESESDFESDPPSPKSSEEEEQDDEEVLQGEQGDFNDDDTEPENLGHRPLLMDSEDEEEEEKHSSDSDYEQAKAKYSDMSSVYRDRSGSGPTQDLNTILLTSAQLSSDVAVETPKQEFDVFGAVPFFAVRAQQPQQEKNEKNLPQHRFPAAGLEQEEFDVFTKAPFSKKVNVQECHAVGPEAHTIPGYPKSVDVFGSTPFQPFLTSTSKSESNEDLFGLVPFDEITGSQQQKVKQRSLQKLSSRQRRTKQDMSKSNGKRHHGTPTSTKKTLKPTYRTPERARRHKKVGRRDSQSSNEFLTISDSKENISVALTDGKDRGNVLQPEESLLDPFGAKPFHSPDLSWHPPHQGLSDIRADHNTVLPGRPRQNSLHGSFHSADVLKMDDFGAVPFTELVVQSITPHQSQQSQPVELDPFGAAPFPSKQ
Chain of CDK6/D3 (Q00534 whole entry): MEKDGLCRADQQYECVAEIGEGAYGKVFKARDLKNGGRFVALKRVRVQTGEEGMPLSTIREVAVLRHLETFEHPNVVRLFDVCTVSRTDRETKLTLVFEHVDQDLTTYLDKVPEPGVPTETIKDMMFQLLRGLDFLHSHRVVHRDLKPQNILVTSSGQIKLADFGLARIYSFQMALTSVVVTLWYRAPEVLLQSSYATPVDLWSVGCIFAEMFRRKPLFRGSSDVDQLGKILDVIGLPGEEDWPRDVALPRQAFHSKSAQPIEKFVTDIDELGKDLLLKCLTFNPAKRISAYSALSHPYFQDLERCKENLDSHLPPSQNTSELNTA
Chain of CDK6/D3 (P30281 whole entry partner): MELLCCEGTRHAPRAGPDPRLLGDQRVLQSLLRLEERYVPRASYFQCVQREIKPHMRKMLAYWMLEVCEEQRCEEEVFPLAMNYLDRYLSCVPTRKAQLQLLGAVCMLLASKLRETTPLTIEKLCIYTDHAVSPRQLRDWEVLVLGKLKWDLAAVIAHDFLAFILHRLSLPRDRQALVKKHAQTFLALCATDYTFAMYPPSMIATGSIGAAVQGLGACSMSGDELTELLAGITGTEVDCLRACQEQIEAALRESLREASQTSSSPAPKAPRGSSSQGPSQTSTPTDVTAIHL

C=CC(=O)N1CCC[C@@H](n2nc(-c3ccc(Oc4ccccc4)cc3)c3c(N)ncnc32)C1 [Ibrutinib]
1 µM GBD00276 (ibrutinib), % inhibition (AAK1): 6.339% | 1 µM GBD00276 (ibrutinib), % inhibition (FGR): 56.77% | 1 µM GBD00276 (ibrutinib), % inhibition (LIMK1): 4.583% | 1 µM GBD00276 (ibrutinib), % inhibition (PRKACB): -25.42% | 1 µM GBD00276 (ibrutinib), % inhibition (CAMKK1): 7.498% | 1 µM GBD00276 (ibrutinib), % inhibition (FLT4): 38.81% | 1 µM GBD00276 (ibrutinib), % inhibition (CDK4/D3): 7.114% | 1 µM GBD00276 (ibrutinib), % inhibition (SGK3): 7.387% | 1 µM GBD00276 (ibrutinib), % inhibition (MAP4K3/GLK): 9.762% | 1 µM GBD00276 (ibrutinib), % inhibition (GRK6): -23.1% | 1 µM GBD00276 (ibrutinib), % inhibition (MYLK3): 0.8658% | 1 µM GBD00276 (ibrutinib), % inhibition (PRKCI/PKCI): 5.685% | 1 µM GBD00276 (ibrutinib), % inhibition (TSSK2): 9.261% | 1 µM GBD00276 (ibrutinib), % inhibition (BMP2K/BIKE): 12.88% | 1 µM GBD00276 (ibrutinib), % inhibition (CAMK2G): 8.429% | 1 µM GBD00276 (ibrutinib), % inhibition (NEK5): 12.71% | 1 µM GBD00276 (ibrutinib), % inhibition (MAPK12/P38G): 1.971% | 1 µM GBD00276 (ibrutinib), % inhibition (CTK): -75.13% | 1 µM GBD00276 (ibrutinib), % inhibition (EPHA1): 10.7% | 1 µM GBD00276 (ibrutinib), % inhibition (DDR2): 20.22% | 1 µM GBD00276 (ibrutinib), % inhibition (EPHA4): -4.922% | 1 µM GBD00276 (ibrutinib), % inhibition (ALK): 3.723% | 1 µM GBD00276 (ibrutinib), % inhibition (CDK6/D3): 7.258% | 1 µM GBD00276 (ibrutinib), % inhibition (STK11/LKB1): -2.74% | 1 µM GBD00276 (ibrutinib), % inhibition (JAK3(JH1)): 10.34% | 1 µM GBD00276 (ibrutinib), % inhibition (CHEK1/CHK1): -3.114% | 1 µM GBD00276 (ibrutinib), % inhibition (CDK18): 6.584% | 1 µM GBD00276 (ibrutinib), % inhibition (PTK2): -4.777% | 1 µM GBD00276 (ibrutinib), % inhibition (SRPK2): 8.374% | 1 µM GBD00276 (ibrutinib), % inhibition (SGK2): -4.773% | 1 µM GBD00276 (ibrutinib), % inhibition (PLK2): -1.576% | 1 µM GBD00276 (ibrutinib), % inhibition (TESK2): 8.621% | 1 µM GBD00276 (ibrutinib), % inhibition (DYRK3): 15.88% | 1 µM GBD00276 (ibrutinib), % inhibition (TEK/TIE2): 2.512% | 1 µM GBD00276 (ibrutinib), % inhibition (MAP3K13): -13.52% | 1 µM GBD00276 (ibrutinib), % inhibition (AKT2): 17.43% | 1 µM GBD00276 (ibrutinib), % inhibition (MAPK8/JNK1): 10.25% | 1 µM GBD00276 (ibrutinib), % inhibition (PRKG2): 26.79% | 1 µM GBD00276 (ibrutinib), % inhibition (PDGFRA): 34.54%
